Measured values: article PMC11864979, “First-in-class ultralong-target-residence-time p38α inhibitors as a mitosis-targeted therapy for colorectal cancer” (Nature Cancer, 2025)
Values joined by “and” are separate entries in the source; they are usually repeats but may differ in a detail not shown here. Equal entries are not always repeated.

Tests used:
KAP^2D cells [1] = assay: cell size and DNA content analysis in KAP^2D cells (flow cytometry); format: cell-based, mouse; conditions: 1 µM, 1 day
Protocol: For DNA content analysis, cells were fixed with ethanol, washed and resuspended in PBS containing 50 µg ml^−1 propidium iodide (Invitrogen) and 250 µg ml^−1 RNase A (Qiagen). Apoptosis was analyzed with the FITC annexin V apoptosis detection kit (Biolegend). Both measurements were performed with FACS Canto II (BD) and physical parameters were used to exclude cell debris and cell doublets.

KMP liver metastasis = assay: survival of mice with KMP liver metastasis; format: in vivo, mouse
Protocol: (§1) Subcutaneous injection, splenic seeding or cecum injection of organoids was performed in 8–10-week-old C57BL/6 N/Crl, Rag2^−/− (B6.Cg-Rag2^tm1.1Cgn/J), or CB17 Scid beige (CB17.Cg-Prkdc^scidLyst^bg-J/Crl) mice, obtained from Charles River. The organoids were dissociated into single cells, washed with PBS and injected in a 1:1 mixture of PBS and Matrigel. For murine organoids, 1 × 10^5 cells were injected into the left and right flanks or the spleen capsule and 2 × 10^6 cells were injected into the cecum wall. For human organoids, 4 × 10^5 cells were injected into the flanks of CB17 Scid beige mice. For splenic seeding and cecum injection, mice were anaesthetized using ketamine (100 mg kg^−1, intraperitoneally) and xylazin (10 mg/kg, intraperitoneally) in NaCl and a small laparotomy below the thorax was performed.

[2] = full blood analysis of mice treated for 4 days or 10 weeks (Sysmex KX-21N); format: in vivo, mouse; conditions: for Hemoglobin / MCV / MCH / MCHC: individual animals; for Hemoglobin: ED Fig. 10a; for MCV: ED Fig. 10b; for MCH: ED Fig. 10c; for MCHC: ED Fig. 10d; for Hematocrit (%): mice
From the text: We conducted a daily treatment of wild-type mice with 2015 or carrier for either 4 days or 10 weeks and subsequently quantified leukocytes, platelets and erythrocytes. Furthermore, we determined the hematocrit and the hemoglobin concentration and calculated routinely used red blood cell indices (mean corpuscular volume (MCV), mean corpuscular hemoglobin (MCH) and mean corpuscular hemoglobin concentration (MCHC)). […] No mice were excluded during treatment studies. […] GFP imaging of tumors was performed using a Hamamatsu imaging system. For quantification of compounds in the murine plasma, 20 μl of tail-vein blood was diluted with 80 μl of heparin solution, before 200 μl of ice-cold acetonitrile with a defined internal standard was added. The samples were sonicated and centrifuged and the supernatant was subjected to liquid chromatography-mass spectrometry quantification. Full blood analyses were performed with the Sysmex KX-21N hematology analyzer.

immune cells = assay: FACS quantification of immune cells in blood, spleen, liver and tumors of treated mice; format: in vivo, mouse; conditions: for CD4+, % of CD3+ cells / CD8+, % of CD3+ cells / CD69+ % of CD4+ T cells / CD69+ % of CD8+ T cells / CD69+ % of T cells: single animals; for CD4+, % of CD3+ cells / CD8+, % of CD3+ cells: Fig. 6f; for CD69+ % of CD4+ T cells / CD69+ % of CD8+ T cells / CD69+ % of T cells: Fig. 6g; for B cells, % of living cells / CD4+ T cells, % of living cells / CD8+ T cells, % of living cells / Dendritic cells, % of living cells / Granulocytes, % of living cells / Monocytes, % of living cells / NK cells, % of living cells / T cells, % of living cells: spleen, 4 d of treatment
Protocol: To determine immune cells, cell suspensions of peripheral blood, spleen, liver or tumors were prepared. Cells were lysed with ammonium chloride buffer ([…], 0.1 mM EDTA and 0.150 mM KHCO3) to eliminate erythrocytes and were stained with antibodies from Biolegend and the live–dead fixable aqua dead cell stain kit (Thermo Fisher Scientific; dilution: 1:1,000). All used antibodies and dilutions are listed in the Nature Portfolio Reporting Summary. Cells were analyzed with the LSR Fortessa (BD). Samples were gated on single viable cells and the percentage of NK cells (NK1.1^+CD3^−), T cells (CD3^+NK1.1^−), CD4^+ T cells (CD3^+NK1.1^−CD4^+CD8a^−), CD8^+ T cells (CD3^+NK1.1^−CD8a^+CD4^−), B cells (CD3^−NK1.1^−CD19^+Ly6G^−), dendritic cells (CD3^−NK1.1^−CD19^−CD11c^+), monocytes (CD3^−NK1.1^−CD19^−CD11c^−Ly6Ghigh^+CD16/32low^+) and granulocytes (CD3^−NK1.1^−CD19^−CD11c^−Ly6G^+CD16/32high^+) was calculated.

[3] = target: T1, recombinant human active p38α protein, MK2 and Wee1 (Homo sapiens, UniProt Q16539); assay: p38α–Wee1 kinase assay (western blot); format: biochemical; conditions: 1 µM
T1 construct: purchased Abcam (p38α, MK2); Novus Biologicals (Wee1) ab271647; ab79910; H00007465-P01
T1 sequence (Q16539 whole entry): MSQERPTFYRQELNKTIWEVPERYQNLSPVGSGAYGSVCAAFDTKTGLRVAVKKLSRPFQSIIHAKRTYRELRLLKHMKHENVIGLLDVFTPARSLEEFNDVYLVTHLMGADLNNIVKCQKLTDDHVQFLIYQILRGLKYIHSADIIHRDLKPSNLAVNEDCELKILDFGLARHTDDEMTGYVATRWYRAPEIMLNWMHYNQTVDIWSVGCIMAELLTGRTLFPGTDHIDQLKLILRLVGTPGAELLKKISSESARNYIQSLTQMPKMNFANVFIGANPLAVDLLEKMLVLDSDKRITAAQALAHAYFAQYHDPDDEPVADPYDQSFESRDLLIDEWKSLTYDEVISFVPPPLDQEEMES
Protocol: Briefly, 200 ng of corresponding proteins were preincubated with 1 µM 2015 or DMSO in a kinase assay buffer (Abcam, ab189135; total volume, 100 µL) for 30 min at 37 °C. Kinase activity was induced with 20 µM ATP. Following a 30-min incubation at 37 °C, the reaction was stopped by protein inactivation (95 °C, 5 min in Laemmli buffer). The antibodies and dilutions for immunoblotting are listed in the Nature Portfolio Reporting Summary.

[4] = cell viability after 2015, Navitoclax or 2015 + Navitoclax (Fig. 5f); format: cell-based; design: concentration or dose not given beside the values; conditions: replicates
KMP primary CRCs = assay: survival of mice with KMP primary CRCs (cecum injection); format: in vivo, mouse
Protocol: as §1

KAP^2D cells [5] = assay: SA-β-Gal senescence staining and senescence markers in CRC cells and organoids; format: cell-based, mouse; conditions: 5 days
Protocol: SA-β-Gal staining was carried out on sections of snap-frozen tumor tissues. The samples were fixed with 0.5% glutaraldehyde solution (in PBS pH 7.4) for 15 min at room temperature and then washed once with PBS and twice with 1 mM MgCl2 in PBS pH 5.5 (5 min each, at room temperature). Subsequently, the samples were incubated with X-Gal solution (2.45 mM X-Gal, 5 mM K3Fe(CN)6, 5 mM K4Fe(CN)6 and 1 mM MgCl2 in PBS pH 5.5) at 37 °C overnight protected from light. Upon staining, the samples were washed three times with PBS (5 min each), fixed with 4% formalin in PBS for 30 min and again washed with PBS (5 min each, at room temperature).
Immunofluorescence staining on cells and organoids was performed on glass coverslips or tissue culture chambers (Sarstedt). Organoids were plated in medium containing 10% Matrigel or Cultrex BME. The cultures were fixed with 4% paraformaldehyde and stained with specific antibodies and DAPI (Vector Labs). All used antibodies and dilutions are listed in the Nature Portfolio Reporting Summary. For analyzing DNA synthesis, the Molecular Probes Click-iT EdU Alexa Fluor 555 kit was used 24 h after EdU incorporation with DAPI counterstaining. SA-β-Gal staining of cells was performed in cell culture dishes (cells) or tissue culture chambers (organoids) after fixation with 0.5% glutaraldehyde as described above. […]

With `CNC(=O)c1ccc2c(c1)C(=O)c1ccc(Nc3ccc(F)c(NC(=O)C4CC4)c3)cc1CC2` [Compound 2015] the “DNA content (in words)” value (KAP^2D cells [1]) was “strong induction of aneuploidy and polyploidy”, the “Survival (d of treatment)” value (KMP liver metastasis; individual mice, KMP liver metastasis, treatment started 1 week after transplantation) was 42 days and 50 days and 29 days and 31 days and 35 days and 44 days and the “Kaplan–Meier event entry in 2015 (1 or 0)” value (KMP liver metastasis; individual mice, KMP liver metastasis, meaning of 1/0 not given) was 1 and 0. The “survival of mice with KMP liver metastasis (in words)” value (KMP liver metastasis; long-term treatment) was “significantly prolonged survival”, the “blood cell fractions versus carrier (in words)” value ([2]; 4 days or 10 weeks daily treatment) was “no relevant differences” and the Hemoglobin ([2]; mice treated 10w) was 14.6 g/dL and 14.3 g/dL and 13.7 g/dL and 14.0 g/dL. The MCV ([2]; mice treated 10w) was 52.0 fL and 52.3 fL and 51.4 fL and 51.7 fL, the MCH ([2]; mice treated 10w) was 14.2 pg and 14.0 pg and 13.8 pg and the MCHC ([2]; mice treated 10w) was 27.4 g/dL and 26.8 g/dL and 26.9 g/dL and 26.6 g/dL. The Hemoglobin ([2]; mice treated 4d) was 14.7 g/dL and 15.4 g/dL and 14.6 g/dL and 14.5 g/dL, the MCV ([2]; mice treated 4d) was 52.3 fL and 51.8 fL and 51.9 fL and 51.5 fL and the MCH ([2]; mice treated 4d) was 14.5 pg and 14.4 pg and 13.7 pg. For the same molecule, the MCHC ([2]; mice treated 4d) was 27.7 g/dL and 26.4 g/dL and 26.6 g/dL, the “Hematocrit (%)” value ([2]; 10w treatment) was 53.3% and 53.4% and 50.9% and 52.6% and the “Hematocrit (%)” value ([2]; 4d treatment) was 53.1% and 55.5% and 55.2% and 54.6%. The “CD4^+ T cells in CRC liver metastases (in words)” value (immune cells; 4 days of treatment) was “increases the number of CD4^+ T cells”, the “CD4+, % of CD3+ cells” value (immune cells; Blood) was 59.0% and 54.5% and 53.0% and 56.9% and the “CD8+, % of CD3+ cells” value (immune cells; Blood) was 35.8% and 35.1% (2×) and 39.0%. For the same molecule, the “CD69+ % of CD4+ T cells” value (immune cells; Liver) was 11.90% and 8.89% and 6.59% and 10.70%, the “CD69+ % of CD8+ T cells” value (immune cells; Liver) was 5.92% and 8.71% and 6.52% and 6.93% and the “CD69+ % of T cells” value (immune cells; Liver) was 9.86% and 8.16% and 6.40% and 10.30%. The “CD4+, % of CD3+ cells” value (immune cells; Spleen) was 67.8% and 63.7% and 64.1% and 65.2%, the “CD8+, % of CD3+ cells” value (immune cells; Spleen) was 25.5% and 28.8% and 28.3% and 27.0% and the “CD4+, % of CD3+ cells” value (immune cells; Tumor) was 74.4% and 79.8% and 62.9%. The “CD8+, % of CD3+ cells” value (immune cells; Tumor) was 13.6% and 8.5% and 20.0%, the “CD69+ % of CD4+ T cells” value (immune cells; Tumor) was 56.80% and 69.90% and 47.60% and the “CD69+ % of CD8+ T cells” value (immune cells; Tumor) was 44.60% and 54.20% and 52.00%. The “CD69+ % of T cells” value (immune cells; Tumor) was 49.80% and 60.30% and 42.10%, the “B cells, % of living cells” value (immune cells; healthy mice) was 45.80% and 42.90% and 40.80% and 40.90% and the “CD4+ T cells, % of living cells” value (immune cells; healthy mice) was 22.70% and 22.50% and 25.00% and 24.30%. For the same molecule, the “CD8+ T cells, % of living cells” value (immune cells; healthy mice) was 10.00% and 8.13% and 10.80%, the “Dendritic cells, % of living cells” value (immune cells; healthy mice) was 2.32% and 3.09% and 2.65% and 2.11% and the “Granulocytes, % of living cells” value (immune cells; healthy mice) was 4.12% and 5.18% and 4.35% and 4.21%. For the same molecule, the “Monocytes, % of living cells” value (immune cells; healthy mice) was 2.59% and 2.56% and 2.30% and 2.36%, the “NK cells, % of living cells” value (immune cells; healthy mice) was 2.30% and 4.22% and 4.00% and 4.77% and the “T cells, % of living cells” value (immune cells; healthy mice) was 35.20% and 32.90% and 37.90% and 36.50%. For the same molecule, the “B cells, % of living cells” value (immune cells; tumor mice (KAP metastases)) was 40.60% and 49.20% and 45.00% and 44.10%, the “CD4+ T cells, % of living cells” value (immune cells; tumor mice (KAP metastases)) was 26.10% and 18.70% and 20.10% and 20.40% and the “CD8+ T cells, % of living cells” value (immune cells; tumor mice (KAP metastases)) was 9.80% and 8.43% and 8.87% and 8.45%. For the same molecule, the “Dendritic cells, % of living cells” value (immune cells; tumor mice (KAP metastases)) was 3.14% and 2.58% and 3.53% and 2.01%, the “Granulocytes, % of living cells” value (immune cells; tumor mice (KAP metastases)) was 3.71% and 4.06% and 4.14% and 4.54% and the “Monocytes, % of living cells” value (immune cells; tumor mice (KAP metastases)) was 3.31% and 3.61% and 4.85% and 6.16%. The “NK cells, % of living cells” value (immune cells; tumor mice (KAP metastases)) was 3.40% and 4.06% and 3.95% and 4.77%, the “T cells, % of living cells” value (immune cells; tumor mice (KAP metastases)) was 38.40% and 29.30% and 31.40% and 31.30% and the “p38α–MK2-mediated phosphorylation of Wee1 at S642 (in words)” value [3] was “blocked”. For the same molecule, the Cell viability [4] was 58.51% and 44.25% and 42.17%, the “Survival (d of treatment)” value (KMP primary CRCs; individual mice, KMP primary CRC, treatment started 9 days after transplantation) was 24 days and 15 days and 11 days and 25 days and 21 days and 13 days and 18 days and the “Kaplan–Meier event entry in 2015 (1 or 0)” value (KMP primary CRCs; individual mice, KMP primary CRC, meaning of 1/0 not given) was 1 and 0. For the same molecule, the “survival of mice with KMP primary CRC (in words)” value (KMP primary CRCs; start 9 days after organoid injection) was “significantly prolonged survival” and the “senescence (SA-β-Gal, p16^Ink4a, HMGA2) (in words)” value (KAP^2D cells [5]) was “clear senescence phenotype”.
